Test results taken from patent US20240398812A1 (Caraway Therapeutics, Inc., priority 2021, published 2024).

Tests used:
TRPMLs = conditions: high concentrations needed; HEK293 cells expressing plasma-membrane TRPML1; cited from earlier work
human TRPML1 = human TRPML1 (Homo sapiens, UniProt Q9GZU1); test: Fluorescent TRPML1 assay (Fluo4-AM calcium fluorescence, HEK-293 Trex cells); type: cell-based
How it was run: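 Tet-inducible HEK-293 Trex cells stably expressing surface-targeted mutant human TRPML1, induced with 0.5 ug/mL doxycycline overnight, loaded with Fluo4-AM and suspended in Ringer's with 10 mM calcium. Compounds tested from 20 μM to 6 nM final, half-log steps, in triplicate; fluorescence (ex 480/em 540) normalised to plate controls, EC50 by non-linear regression.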

TRPML2 = molecular target: T1, TRPML2 (Homo sapiens, UniProt Q8IZK6); test: Fluorescent TRPML2 assay (as for TRPML1); type: cell-based
T1 construct: expressed in transfected cells
T1 sequence (Q8IZK6 1-566): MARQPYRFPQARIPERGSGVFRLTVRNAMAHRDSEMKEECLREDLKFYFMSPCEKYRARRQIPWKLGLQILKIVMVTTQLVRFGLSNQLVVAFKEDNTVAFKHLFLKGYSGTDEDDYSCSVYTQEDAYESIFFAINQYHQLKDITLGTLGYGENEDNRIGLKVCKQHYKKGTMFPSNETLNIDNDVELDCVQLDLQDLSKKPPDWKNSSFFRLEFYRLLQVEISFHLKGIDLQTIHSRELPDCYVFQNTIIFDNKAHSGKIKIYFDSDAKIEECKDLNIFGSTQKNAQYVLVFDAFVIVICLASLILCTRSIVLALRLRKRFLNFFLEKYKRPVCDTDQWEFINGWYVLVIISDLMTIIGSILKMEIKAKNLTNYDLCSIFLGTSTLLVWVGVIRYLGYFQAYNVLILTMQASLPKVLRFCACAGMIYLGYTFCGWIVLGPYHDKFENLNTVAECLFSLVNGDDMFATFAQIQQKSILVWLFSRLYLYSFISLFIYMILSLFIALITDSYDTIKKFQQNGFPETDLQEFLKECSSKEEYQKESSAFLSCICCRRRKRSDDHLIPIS
How it was run: (§1)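 HEK-293 Trex cells with tet-inducible (0.5 ug/mL doxycycline, overnight) surface-targeted mutant channel, Fluo4-AM loaded, suspended in Ringer's with 10 mM calcium. Compounds tested 20 µM to 6 nM final, half-log steps, triplicate; fluorescence at ex 480/em 540 nm. EC50 by non-linear regression of percent activity versus plate controls.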

TRPML3 = molecular target: T2, TRPML3 (Homo sapiens, UniProt Q8TDD5); test: Fluorescent TRPML3 assay (as for TRPML1); type: cell-based
T2 construct: expressed in transfected cells
T2 sequence (Q8TDD5 1-553): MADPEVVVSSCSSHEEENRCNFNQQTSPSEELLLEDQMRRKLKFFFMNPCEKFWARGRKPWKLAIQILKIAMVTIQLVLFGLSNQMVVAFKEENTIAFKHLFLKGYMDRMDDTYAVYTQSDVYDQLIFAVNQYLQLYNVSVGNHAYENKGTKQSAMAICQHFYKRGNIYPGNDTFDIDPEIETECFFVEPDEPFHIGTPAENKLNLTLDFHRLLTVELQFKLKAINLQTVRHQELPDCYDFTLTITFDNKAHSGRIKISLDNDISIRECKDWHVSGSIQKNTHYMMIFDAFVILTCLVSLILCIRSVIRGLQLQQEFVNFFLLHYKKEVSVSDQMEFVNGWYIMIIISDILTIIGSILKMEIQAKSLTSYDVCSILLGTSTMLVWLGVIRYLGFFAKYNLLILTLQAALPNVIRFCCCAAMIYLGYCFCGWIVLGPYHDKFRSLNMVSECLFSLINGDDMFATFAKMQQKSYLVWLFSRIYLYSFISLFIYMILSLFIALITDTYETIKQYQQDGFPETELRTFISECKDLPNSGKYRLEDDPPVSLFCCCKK
How it was run: as §1

Chain of human TRPML1 (Q9GZU1 whole entry L15A/L16A/L577A/L578A, form open): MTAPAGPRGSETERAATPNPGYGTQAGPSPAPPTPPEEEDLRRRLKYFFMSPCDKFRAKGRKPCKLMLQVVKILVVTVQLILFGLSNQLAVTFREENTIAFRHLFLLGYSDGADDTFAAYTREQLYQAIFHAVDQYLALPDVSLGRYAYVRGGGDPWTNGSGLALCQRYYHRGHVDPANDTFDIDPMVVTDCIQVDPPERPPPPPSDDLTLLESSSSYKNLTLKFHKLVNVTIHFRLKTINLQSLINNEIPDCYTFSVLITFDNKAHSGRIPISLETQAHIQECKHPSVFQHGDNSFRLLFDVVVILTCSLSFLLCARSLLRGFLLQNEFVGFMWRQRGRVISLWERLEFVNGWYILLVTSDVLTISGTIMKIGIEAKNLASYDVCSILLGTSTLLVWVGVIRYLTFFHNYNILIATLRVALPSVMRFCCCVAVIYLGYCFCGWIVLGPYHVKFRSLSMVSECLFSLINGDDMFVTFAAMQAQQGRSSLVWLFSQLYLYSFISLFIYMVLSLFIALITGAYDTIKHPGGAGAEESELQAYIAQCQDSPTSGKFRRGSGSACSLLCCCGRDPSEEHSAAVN

Structure (SMILES)	EC50 (human TRPML1; Table 3, compounds 101-177)	EC50 (TRPML2; Table 3, compounds 101-177)	EC50 (TRPML3; Table 3, compounds 101-177)	EC50 (human TRPML1; Table 3, compounds 201-283)	EC50 (TRPML2; Table 3, compounds 201-283)	EC50 (TRPML3; Table 3, compounds 201-283)	concentration needed to effectively activate TRPMLs (TRPMLs)
CC1CC(C)(C)N(C(=O)CN2C(=O)c3ccccc3C2=O)c2ccccc21 (stereo not shown) [ML-SA1]	–	–	–	–	–	–	~10 µM
C[C@@H]1CN(c2ncnc3c2c(C2CCC2)cn3-c2cc(F)cc(F)c2)[C@@H](C)CN1C(=O)C(C)(C)C [Compound 255, 1-((2R,5S)-4-(5-cyclobutyl-7-(3,5-difluorophenyl)-7H-pyrrolo[2,3-d]pyrimidin-4-yl)-2,5-dimethylpiperazin-1-yl)-2,2-dimethylpropan-1-one]	–	–	–	500 to 2000 nM	> 2000 nM	500 to 2000 nM	–
Cc1nccnc1-c1cn(-c2cc(C#N)ccn2)c2ncnc(N3C[C@@H](C)N(C(=O)CC(C)C)C[C@@H]3C)c12 [Compound 173, 2-(4-((2S,5R)-2,5-dimethyl-4-(3-methylbutanoyl)piperazin-1-yl)-5-(3-methylpyrazin-2-yl)-7H-pyrrolo[2,3-d]pyrimidin-7-yl)isonicotinonitrile]	100 to 500 nM	> 2000 nM	> 2000 nM	–	–	–	–
COC(C)(C)C(=O)N1C[C@H](C)N(c2ncnc3c2c(N2CCC2)cn3-c2cccc(F)c2)C[C@H]1C [Compound 277, 1-((2R,5S)-4-(5-(azetidin-1-yl)-7-(3-fluorophenyl)-7H-pyrrolo[2,3-d]pyrimidin-4-yl)-2,5-dimethylpiperazin-1-yl)-2-methoxy-2-methylpropan-1-one]	–	–	–	< 100 nM	500 to 2000 nM	100 to 500 nM	–
COC(C)(C)C(=O)N1C[C@H](C)N(c2ncnc3c2c(C(F)(F)F)cn3-c2cc(C#N)ccn2)C[C@H]1C [Compound 208, 2-(4-((2S,5R)-4-(2-methoxy-2-methylpropanoyl)-2,5-dimethylpiperazin-1-yl)-5-(trifluoromethyl)-7H-pyrrolo[2,3-d]pyrimidin-7-yl)isonicotinonitrile]	–	–	–	< 100 nM	500 to 2000 nM	< 100 nM	–
C[C@@H]1CN(c2ncnc3c2c(N2CCCC2)cn3-c2cccc(Cl)c2)[C@@H](C)CN1C(=O)C1(F)CC1 [Compound 280, ((2R,5S)-4-(7-(3-chlorophenyl)-5-(pyrrolidin-1-yl)-7H-pyrrolo[2,3-d]pyrimidin-4-yl)-2,5-dimethylpiperazin-1-yl)(1-fluorocyclopropyl)methanone]	–	–	–	100 to 500 nM	500 to 2000 nM	500 to 2000 nM	–
C[C@@H]1CN(c2ncnc3c2c(C2CC2)cn3-c2cc(C#N)ccn2)CCN1C(=O)C(C)(C)C [Compound 122, (R)-2-(5-cyclopropyl-4-(3-methyl-4-pivaloylpiperazin-1-yl)-7H-pyrrolo[2,3-d]pyrimidin-7-yl)isonicotinonitrile]	< 100 nM	100 to 500 nM	100 to 500 nM	–	–	–	–
C[C@@H]1CN(c2ncnc3c2c(C(F)(F)F)cn3-c2cccc(Cl)c2)[C@@H](C)CN1C(=O)C(C)(C)C [Compound 204, 1-((2R,5S)-4-(7-(3-chlorophenyl)-5-(trifluoromethyl)-7H-pyrrolo[2,3-d]pyrimidin-4-yl)-2,5-dimethylpiperazin-1-yl)-2,2-dimethylpropan-1-one]	–	–	–	< 100 nM	100 to 500 nM	< 100 nM	–
C[C@@H]1CN(c2ncnc3c2c(N2CCCC2)cn3-c2cccc(Cl)c2)CCN1C(=O)C1(F)CC1 [Compound 279, (R)-(4-(7-(3-chlorophenyl)-5-(pyrrolidin-1-yl)-7H-pyrrolo[2,3-d]pyrimidin-4-yl)-2-methylpiperazin-1-yl)(1-fluorocyclopropyl)methanone]	–	–	–	100 to 500 nM	500 to 2000 nM	500 to 2000 nM	–
C[C@@H]1CN(c2ncnc3c2c(C2CCC2)cn3-c2cc(C#N)ccn2)[C@@H](C)CN1C(=O)C(C)(C)C(F)(F)F [Compound 240, 2-(5-cyclobutyl-4-((2S,5R)-2,5-dimethyl-4-(3,3,3-trifluoro-2,2-dimethylpropanoyl)piperazin-1-yl)-7H-pyrrolo[2,3-d]pyrimidin-7-yl)isonicotinonitrile]	–	–	–	100 to 500 nM	100 to 500 nM	< 100 nM	–

Now from value to molecule, other results behind:

EC50 (human TRPML1; Table 3, compounds 101-177)	EC50 (TRPML2; Table 3, compounds 101-177)	EC50 (TRPML3; Table 3, compounds 101-177)	EC50 (human TRPML1; Table 3, compounds 201-283)	EC50 (TRPML2; Table 3, compounds 201-283)	EC50 (TRPML3; Table 3, compounds 201-283)	Structure (SMILES)	concentration needed to effectively activate TRPMLs (TRPMLs)
< 100 nM	< 100 nM	< 100 nM	–	–	–	C[C@H]1CN(C(=O)C2(F)CC2)CCN1c1ncnc2c1c(-c1ccccc1F)cn2-c1cc(C#N)ccn1 [Compound 115, (S)-2-(4-(4-(1-fluorocyclopropane-1-carbonyl)-2-methylpiperazin-1-yl)-5-(2-fluorophenyl)-7H-pyrrolo[2,3-d]pyrimidin-7-yl)isonicotinonitrile]	–
–	–	–	< 100 nM	100 to 500 nM	< 100 nM	COC1(C(=O)N2C[C@H](C)N(c3ncnc4c3c(-c3ccccc3)cn4-c3cc(C#N)ccn3)C[C@H]2C)CC1 [Compound 283, 2-(4-((2S,5R)-4-(1-methoxycyclopropane-1-carbonyl)-2,5-dimethylpiperazin-1-yl)-5-phenyl-7H-pyrrolo[2,3-d]pyrimidin-7-yl)isonicotinonitrile]	–
< 100 nM	500 to 2000 nM	< 100 nM	–	–	–	C[C@H]1CN(C(=O)C(C)(C)C)CCN1c1ncnc2c1c(C1CC1)cn2-c1cc(C#N)ccn1 [Compound 104, (S)-2-(5-cyclopropyl-4-(2-methyl-4-pivaloylpiperazin-1-yl)-7H-pyrrolo[2,3-d]pyrimidin-7-yl)isonicotinonitrile]	–
< 100 nM	100 to 500 nM	< 100 nM	–	–	–	C[C@H]1CN(C(=O)CC(C)(C)C)CCN1c1ncnc2c1c(-c1ccccc1F)cn2-c1cc(C#N)ccn1 [Compound 133, (S)-2-(4-(4-(3,3-dimethylbutanoyl)-2-methylpiperazin-1-yl)-5-(2-fluorophenyl)-7H-pyrrolo[2,3-d]pyrimidin-7-yl)isonicotinonitrile]	–
–	–	–	< 100 nM	< 100 nM	< 100 nM	[2H]C([2H])([2H])C(C(=O)N1C[C@H](C)N(c2ncnc3c2c(-c2ccccc2F)cn3-c2cc(C#N)ccn2)C[C@H]1C)(C([2H])([2H])[2H])C([2H])([2H])[2H] [Compound 231, 2-(4-((2S,5R)-4-(2,2-bis(methyl-d3)propanoyl-3,3,3-d3)-2,5-dimethylpiperazin-1-yl)-5-(2-fluorophenyl)-7H-pyrrolo[2,3-d]pyrimidin-7-yl)isonicotinonitrile]	–
